Reference: patent EP4356928A1, “NUCLEOSIDE DIPHOSPHATE OR DIPHOSPHONATE PRODRUGS, OR NUCLEOSIDE ANALOGUE DIPHOSPHATE OR DIPHOSPHONATE PRODRUGS” (Universität Hamburg, priority 2022, dated 2024)
Like-named read-outs stand apart in the source and are kept apart here.

Legend:
[1] = test system: HIV-1 (HE); experiment: Inhibition of HIV-1 replication in wild-type CEM/0 cell cultures; format: cell-based; settings: Human immunodeficiency virus 1, CCRF-CEM, read-out: Antiviral activity EC50 HIV-1 (HE)
Description: (§1) All β-phosph(on)ate prodrug compounds were evaluated for their activity to inhibit the replication of HIV in HIV-1- and HIV-2-infected wild-type (CEM/0) cell cultures and in HIV-2-infected mutant thymidine kinase-deficient (CEM/TK^-) cell cultures (see Table 3).
(§2) Antiviral activity was determined in CD4^+ T-lymphocytes: 50% effective concentration (EC50 [µM]).

[2] = test system: HIV-2 (ROD); experiment: Inhibition of HIV-2 replication in wild-type CEM/0 cell cultures; format: cell-based; settings: Human immunodeficiency virus 2, CCRF-CEM, read-out: Antiviral activity EC50 HIV-2 (ROD)
Description: as §1, §2

[3] = test system: HIV-2 (ROD); experiment: Inhibition of HIV-2 replication in thymidine kinase-deficient CEM/TK- cell cultures; format: cell-based; settings: for EC50: Human immunodeficiency virus 2, CEM-TK(-), read-out: Antiviral activity EC50 CEM/TK^- HIV-2 (ROD)
Description: as §1, §2

[4] = test system: CD4^+ T-cell (CEM); experiment: Cytotoxicity: inhibition of CD4+ T-cell (CEM) proliferation; settings: ratio between cell toxicity (CC50) and EC50 CEM/TK-
Description: (§3) In addition, a selectivity index (SI) was determined. The selectivity index is the ratio between cell toxicity and […], the ratio between cell toxicity (see Table 4) and EC50 CEM/TK^- (see right column of Table 3).
(§4) Table 4: Cytotoxicity (CC50 [µM]) and selectivity index (SI) of tested prodrug compounds.

[5] = as above; settings: human
Description: as §3, §4

[6] = Stability (hydrolysis half-life) in CEM/0 cell extracts, RP-18 HPLC; format: in vitro ADME; settings: human, read-out: Half-lives CEM T cell extracts (converted)
Description: (§5) Stability tests regarding a number of differently substituted β-phosphate and β-phosphonate nucleoside prodrugs were conducted. The chemical and biological stability was tested in different media (phosphate-buffered saline PBS (pH 7.3), pig liver esterase (PLE), CEM cell extracts) and rated by determining the half-live of these compounds. The products of the respective hydrolysis were detected by analytical RP-18 HPLC.
(§6) Results of the hydrolysis experiments in different media (PBS (pH = 7.3), PLE (pig liver esterase) in PBS, or CEM-T cell extracts) are shown in Table 2.
(§7) Table 2: Half-lives (in hours) of the β-phosph(on)ate prodrug compounds of the invention in phosphate buffer saline (PBS, pH 7.3), PLE (100 units/mL pig liver esterase in PBS) and CEM/0 cell extracts. n.d. = not determined.

[7] = Chemical stability (hydrolysis half-life) in phosphate-buffered saline, RP-18 HPLC; format: physicochemical; settings: phosphate buffer saline (PBS, pH 7.3); read-out: Half-lives PBS (converted)
Description: as §5, §6, §7

[8] = Stability (hydrolysis half-life) against pig liver esterase in PBS, RP-18 HPLC; format: in vitro ADME; settings: pH 7.3; 100 units/mL pig liver esterase in PBS; read-out: Half-lives PLE (converted)
Description: as §5, §6, §7

[9] = CD4+ T-lymphocytes (CEM/0), mean ±SD of n=2-3

Compound | EC50 [1, 9] | EC50 [2, 9] | EC50 [3] | Selectivity index (SI) [4] | CC50 [5] | EC50 [2] | EC50 [1] | improvement of antiviral activity as compared to the nucleoside analogue d4T ([3]; HIV-2 in CEM/TK- cells, versus d4T) | half-life [6] | half-life [7] | CC50 ([5]; cem cells) | half-life [8]
Nc1nc(NC2CC2)c2ncn([C@H]3C=C[C@@H](CO)C3)c2n1 [ABC, abacavir, reference compound] | 9390 ± 2450 nM | 3510 ± 3250 nM | 1980 ± 860 nM | >50 | > 100000 nM |  |  |  |  |  |  | 
Cc1cn([C@H]2C[C@H](N=[N+]=[N-])[C@@H](CO)O2)c(=O)[nH]c1=O [AZT, zidovudine, reference compound] | 14 ± 8.5 nM |  | > 100000 nM | >1 | > 100000 nM | 3.4 ± 2.1 nM |  |  |  |  |  | 
Cc1cn([C@H]2C[C@H](F)[C@@H](CO)O2)c(=O)[nH]c1=O [FLT, alovudine, reference compound] | 2.5 ± 2.9 nM |  | > 100000 nM |  | > 100000 nM | 4.3 ± 1.7 nM |  |  |  |  |  | 
CCCCCCCCCCCCCCCCCCOP(=O)(OCCCC)OP(=O)(O)OC[C@@H]1C=C[C@H](n2cc(C)c(=O)[nH]c2=O)O1 (some centres unmarked) [No 16] |  |  | 1.1 nM |  |  | 4.4 ± 1.3 nM | 33 ± 22 nM | 45.400 fold | > 18 h | > 41.7 days | 41300 nM | > 150 h
CCCCCCCCCCCCCCCCCCOP(=O)(OCC(CC)CCCC)OP(=O)(O)OC[C@@H]1C=C[C@H](n2cc(C)c(=O)[nH]c2=O)O1 (some centres unmarked) [No 17] |  |  | 11 ± 0.71 nM | 4226 |  | 45 ± 46 nM | 71 ± 52 nM |  |  | > 41.7 days | 46500 nM | 
CCCCCCCCCCCCCCCCCCP(=O)(OCCCC)OP(=O)(O)OC[C@@H]1C=C[C@H](n2cc(C)c(=O)[nH]c2=O)O1 (some centres unmarked) [No 18] |  |  | 2.1 ± 3.4 nM | 20309 |  | 16 ± 8.3 nM | 31 ± 27 nM |  | > 40 h | > 125 days | 42600 nM | > 150 h
CCCCCCCCCCCCCCCCCCOP(=O)(OCCCC)OP(=O)(O)OC[C@H]1O[C@@H](n2cc(C)c(=O)[nH]c2=O)C[C@@H]1N=[N+]=[N-] (some centres unmarked) [No 19] |  |  | 43 ± 48 nM | 1112 |  | 25 ± 9 nM | 58 ± 50 nM |  | > 8 h | 42.8 days | 47800 nM | > 150 h
CCCCCCCCCCCCCCCCCCP(=O)(OCCCC)OP(=O)(O)OC[C@H]1O[C@@H](n2cc(C)c(=O)[nH]c2=O)C[C@@H]1N=[N+]=[N-] (some centres unmarked) [No 20] |  |  | 170 ± 130 nM | 487 |  | 20 ± 8 nM | 87 ± 55 nM |  | > 18 h | > 83.3 days | 82700 nM | > 150 h
CCCCCCCCCCCCCCCCCCOP(=O)(OCCCC)OP(=O)(O)OC[C@H]1O[C@@H](n2cc(C)c(=O)[nH]c2=O)C[C@@H]1F (some centres unmarked) [No 21] |  |  | 17 ± 16 nM | 3447 |  | 40 ± 28 nM | 6.7 ± 2.1 nM |  | > 10 h | > 41.7 days | 58600 ± 19400 nM | > 150 h
CCCCCCCCCCCCCCCCCCP(=O)(OCCCC)OP(=O)(O)OC[C@H]1O[C@@H](n2cc(C)c(=O)[nH]c2=O)C[C@@H]1F (some centres unmarked) [No 22] |  |  | 15 ± 4 nM | 3620 |  | 42 ± 13 nM | 6.3 ± 4.6 nM |  |  | > 83.3 days | 54300 ± 15200 nM | 
CCCCCCCCCCCCCCCCCCOP(=O)(OCCCC)OP(=O)(O)OC[C@H]1O[C@@H](n2ccc(=O)[nH]c2=O)C[C@@H]1F (some centres unmarked) [No 23] |  |  | 210 ± 100 nM | 213 |  | 150 ± 20 nM | 140 ± 71 nM |  |  | 33.2 days | 44800 nM | 
CCCCCCCCCCCCCCCCCCP(=O)(OCCCC)OP(=O)(O)OC[C@H]1O[C@@H](n2ccc(=O)[nH]c2=O)C[C@@H]1F (some centres unmarked) [No 24] |  |  | 51 ± 69 nM | 1159 |  | 76 ± 77 nM | 57 ± 9 nM |  | > 20 h | > 83.3 days | 59100 ± 20800 nM | > 150 h
CCCCCCCCCCCCCCCCCCOP(=O)(OCCCC)OP(=O)(O)OC[C@@H]1C=C[C@H](n2cnc3c(NC4CC4)nc(N)nc32)C1 (some centres unmarked) [No 25] |  |  | 3.1 ± 2.7 nM | 3387 |  | 8.7 ± 0.4 nM | 16 ± 4 nM |  | 6.7 h | 2.33 days | 10500 ± 4600 nM | 41 h
CCCCCCCCCCCCCCCCCCP(=O)(OCCCC)OP(=O)(O)OC[C@@H]1C=C[C@H](n2cnc3c(NC4CC4)nc(N)nc32)C1 (some centres unmarked) [No 26] |  |  | < 1 nM | >100000 |  | 26 ± 18 nM | 34 ± 13 nM |  | > 10 h | > 41.7 days | > 100000 nM | > 150 h
Cc1cn([C@H]2C=C[C@@H](CO)O2)c(=O)[nH]c1=O [d4T, stavudine, reference compound] |  |  | > 50000 nM | >1 | > 50000 nM | 970 ± 500 nM | 330 ± 130 nM |  |  |  |  | 
